Earlier results in US20150272847A1, “Skin Engaging Shaving Aid Comprising A Thermally Resilient Sensate And A TRPA1 Receptor Inhibitor” (The Gillette Company, priority 2014, published 2015).

Details: compared to menthol at 2 ppm

SMILES: CC(C)[C@@H]1CC[C@@H](C)C[C@H]1C(=O)Nc1ccc(CC#N)cc1 [N-[4-(cyanomethyl)phenyl]-(1R,2S,5R)-2-isopropyl-5-methylcyclohexanecarboxamide]
- Cooling as compared to menthol: about 10 ×
